Measured values from ChEMBL document CHEMBL1201862, “PubChem BioAssay data set” (2004).
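1) Cells in 96-well plates. 2) Compound, 48 h, 5 concentrations. 3) Linear interpolation between surrounding doses. 4) Unreached endpoint = highest concentration. GI50 = concentration required for 50% inhibition of growth.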 The source made the active and inactive calls. Cut-off read from the data, not from the text of the source: active = GI50 up to about 1.1 µM and inactive = higher.

How the values were obtained:
Test in all cases: growth of human tumour cells (NCI), 48 h
[1] = system: A549
[2] = system: NCI-H522
[3] = system: MDA-MB-231
[4] = system: HCT-116
[5] = system: K562
[6] = system: RXF 393
[7] = system: OVCAR-4
[8] = system: SF-539
[9] = system: CCRF-CEM
[10] = system: UO-31
[11] = system: M14
[12] = system: SR
[13] = system: NCI-H460
[14] = system: EKVX
[15] = system: T47D
[16] = system: SNB-78
[17] = system: DMS-273
[18] = system: DMS-114
[19] = system: KM-20L2
[20] = system: DLD-1

Measured: GI50

NS(=O)(=O)c1cc(C(=O)O)c(Cl)c([N+](=O)[O-])c1Cl
inactive: [1] > 100 µM | [2] > 100 µM | [3] > 100 µM | [4] > 100 µM | [5] > 100 µM | [6] > 100 µM | [7] > 100 µM | [8] > 100 µM | [9] > 100 µM | [10] > 100 µM | [11] > 100 µM | [12] > 100 µM | [13] > 100 µM | [14] > 100 µM | [15] > 100 µM

BrC1=CCC23CC=C(Br)[C@H]4CC2(COC3)C[C@@H]1O4 (stereo partly specified)
inactive: [1] > 100 µM | [16] 35.2 µM | [2] 24.3 µM | [4] 29.2 µM | [17] 36.7 µM | [5] 27.5 µM | [6] 32 µM | [7] 27 µM | [8] 84.9 µM | [9] 24.4 µM | [10] 28.2 µM | [18] 28.4 µM | [19] 59.3 µM | [11] > 100 µM | [12] 23.4 µM | [13] 48 µM | [14] > 100 µM

CC(=O)OC1COC(n2c(=S)n(-c3ccccc3)c(=O)c3cc(Br)ccc32)C(OC(C)=O)C1OC(C)=O (stereo unspecified)
inactive: [1] 40.4 µM | [16] 29 µM | [2] 45.8 µM | [4] 23.9 µM | [17] 45.8 µM | [5] > 100 µM | [6] 22.2 µM | [7] 7.5 µM | [8] 22.4 µM | [9] > 100 µM | [10] > 100 µM | [18] 51.6 µM | [19] > 100 µM | [11] 30.8 µM | [13] 65.2 µM | [14] > 100 µM

O=C1Oc2ccccc2N/C1=C/C(=O)c1ccc([N+](=O)[O-])cc1
inactive: [1] > 100 µM | [2] 23 µM | [3] > 100 µM | [4] > 100 µM | [5] > 100 µM | [6] > 100 µM | [7] > 100 µM | [8] > 100 µM | [9] 61 µM | [10] > 100 µM | [11] > 100 µM | [12] > 100 µM | [13] > 100 µM | [14] > 100 µM | [15] > 100 µM

CCSc1c2cc(OC)ccc2nc2ccc(OC)cc12
inactive: [1] 25.6 µM | [2] 9.33 µM | [3] 8.57 µM | [4] 6.05 µM | [5] 5.74 µM | [6] 11.6 µM | [7] 11.7 µM | [8] 15.3 µM | [9] 5.56 µM | [10] 12.6 µM | [11] 11.9 µM | [12] 2.76 µM | [13] 13.2 µM | [14] 9.84 µM | [15] 8.87 µM

COc1ccccc1C(=O)Nc1ccc(Cl)c(C(=O)OC(C)C)c1
inactive: [1] 40.2 µM | [16] 42 µM | [2] 33.2 µM | [3] > 100 µM | [4] 39.1 µM | [17] 35.3 µM | [5] 28.4 µM | [6] 25 µM | [7] 42.4 µM | [8] > 67.3 µM | [9] 36.4 µM | [10] 18.5 µM | [18] 19 µM | [19] 28.6 µM | [11] > 54.6 µM | [13] 37.4 µM | [14] 39.9 µM | [15] 20.1 µM

Clc1ccc(-c2nn3c(-c4ccncc4)nnc3s2)cc1
inactive: [1] > 100 µM | [2] > 100 µM | [3] 66.7 µM | [4] > 100 µM | [5] > 100 µM | [6] 25.6 µM | [7] > 100 µM | [8] > 100 µM | [9] > 100 µM | [10] > 100 µM | [11] > 100 µM | [12] > 100 µM | [13] > 100 µM | [14] > 100 µM | [15] > 100 µM

CC1NOC(=O)C1/N=N/c1ccccc1Cl (stereo unspecified)
inactive: [1] 63.7 µM | [16] 52.5 µM | [20] 39.4 µM | [2] 17.4 µM | [4] 37.2 µM | [5] 40.7 µM | [6] 26.4 µM | [7] 39.9 µM | [8] 24.5 µM | [9] 40.9 µM | [10] 13.9 µM | [18] 34.7 µM | [19] 68.4 µM | [11] 40.6 µM | [13] 45.1 µM | [14] 88.9 µM

Cn1cc(-c2ccc3c4ccccc4n(C)c3c2)c2ccccc21
inactive: [1] > 100 µM | [16] > 100 µM | [2] > 100 µM | [4] > 100 µM | [5] 67.9 µM | [6] > 100 µM | [7] > 100 µM | [8] > 100 µM | [9] > 100 µM | [10] > 100 µM | [18] > 100 µM | [19] > 100 µM | [11] > 100 µM | [13] > 100 µM | [14] > 100 µM

CC1=NN(c2nc(N)nc(CSCc3nc(N)nc(N(C)C)n3)n2)C(C)(C)C1
inactive: [1] > 100 µM | [2] > 100 µM | [3] > 100 µM | [4] > 100 µM | [5] 18.2 µM | [6] > 100 µM | [7] > 100 µM | [8] > 100 µM | [9] > 100 µM | [10] > 100 µM | [11] > 100 µM | [12] > 100 µM | [13] > 100 µM | [14] > 100 µM | [15] > 100 µM

CC(C)(C)OC(=O)NCC(=O)N(CCc1ccc(Cl)c(Cl)c1)CCN1CCCC1
inactive: [1] 17.7 µM | [2] 14.5 µM | [3] 13.1 µM | [4] 13.7 µM | [5] 8.11 µM | [6] 14.9 µM | [7] 21.2 µM | [8] 16.8 µM | [9] 10.6 µM | [10] 14.6 µM | [11] 14.3 µM | [12] 14.5 µM | [13] 15.8 µM | [14] 21.7 µM | [15] 22.7 µM

CCCCCCCCCCCc1noc2c1C(=O)C(O)CC2 (stereo unspecified)
inactive: [1] 22 µM | [16] 24.4 µM | [2] 20.5 µM | [4] 17.6 µM | [17] 16.8 µM | [5] 17.2 µM | [6] 14.2 µM | [7] 16.6 µM | [8] 22.2 µM | [9] 25.1 µM | [10] 23.3 µM | [19] 17.2 µM | [11] 27.2 µM | [12] 27.2 µM | [13] 20 µM | [14] 33.5 µM

COc1ccc(C2=Nc3ccccc3SC(C)C2)cc1OC (stereo unspecified)
inactive: [16] 27.4 µM | [2] 17.4 µM | [4] 17.7 µM | [17] 16.7 µM | [5] 25.5 µM | [7] 22.1 µM | [9] 31.8 µM | [10] 17.8 µM | [18] 19.4 µM | [19] 18.8 µM | [11] 18.6 µM | [12] 20.8 µM | [13] 19.2 µM | [14] 24.5 µM

COc1ccc2c(C3(O)CCNCC3)c[nH]c2c1
inactive: [1] > 100 µM | [20] > 100 µM | [2] > 100 µM | [17] > 100 µM | [5] > 100 µM | [6] > 100 µM | [7] > 100 µM | [8] > 100 µM | [9] > 100 µM | [10] > 100 µM | [19] > 100 µM | [11] > 100 µM | [13] > 100 µM | [14] > 100 µM

CCOC(=O)CSc1cc[nH]c(=O)n1
inactive: [1] > 100 µM | [16] > 100 µM | [2] > 100 µM | [4] > 100 µM | [17] > 100 µM | [5] > 100 µM | [6] 31.6 µM | [8] > 100 µM | [9] > 100 µM | [10] > 100 µM | [18] > 100 µM | [19] > 100 µM | [11] > 100 µM | [13] > 100 µM | [14] > 100 µM

Cc1cccc(NC(=O)/C=C/c2ccc(N(CCC#N)CCC#N)cc2C)c1
inactive: [1] > 100 µM | [20] > 100 µM | [2] > 100 µM | [4] > 100 µM | [17] > 100 µM | [5] 16.8 µM | [7] > 100 µM | [8] > 100 µM | [9] 33 µM | [10] 24.5 µM | [18] 49.9 µM | [19] > 100 µM | [11] > 100 µM | [13] > 100 µM | [14] > 100 µM

O=C(c1ccccc1)c1c(CC(O)c2ccccn2)n(C(=O)c2ccccc2)c2ccccc12 (stereo unspecified)
inactive: [1] 25.3 µM | [20] 26.9 µM | [2] 20.3 µM | [4] 14 µM | [17] 23.6 µM | [5] 27.9 µM | [7] 21.8 µM | [8] 16.7 µM | [9] 25.6 µM | [10] 22.1 µM | [18] 22 µM | [19] 18.5 µM | [11] 18.9 µM | [12] 15.1 µM | [13] 21.5 µM

CN(Cc1cnc2nc(N)nc(N)c2n1)c1ccc(C(=O)NC(CCC(=O)NCCC(P(=O)(O)O)P(=O)(O)O)C(=O)O)cc1 (stereo unspecified)
inactive: [1] 11.6 µM | [2] > 88.3 µM | [3] > 100 µM | [4] 3.67 µM | [5] 1.47 µM | [6] > 100 µM | [7] > 100 µM | [8] 10.3 µM | [9] 6.08 µM | [10] 22 µM | [11] 4.85 µM | [12] 3.17 µM | [13] 4.35 µM | [14] 69.5 µM | [15] > 67.9 µM
